Source: paper PMC9688344, “[^225Ac]Ac-SibuDAB for Targeted Alpha Therapy of Prostate Cancer: Preclinical Evaluation and Comparison with [^225Ac]Ac-PSMA-617” (Cancers, 2022)

Assays:
patients = tested on: patients; parameters: method as in PMID 33293081; details: clinical study; cited from earlier work
BALB/c nude mice = test: Comparison of treated (cured) therapy mice with healthy mice at study end; assay type: in vivo
Protocol: After administration of the radioligands, the mice were monitored over 8 weeks using the same measures as previously published by Umbricht et al.. The relative body mass was defined as [BMx/BM0], where BMx is the body mass in grams at a given Day x and BM0 is the body mass in grams at Day 0. The tumor dimension was determined by measuring the longest tumor axis (L) and its perpendicular axis (W) with a digital caliper. The tumor volume (V) was calculated according to the equation [V = 0.5 × (LW^2)]. The relative tumor volume was defined as [TVx/TV0], where TVx is the tumor volume in mm^3 at a given Day x, and TV0 is the tumor volume in mm^3 at Day 0. Endpoint criteria that required euthanasia were defined as (i) body mass loss of >15%, (ii) a tumor volume of >800 mm^3, (iii) a combination of body mass loss of >10% and a tumor volume of >700 mm^3 or, (iv) signs of unease and pain or a combination thereof using a scoring system as previously reported. The median survival of mice of each group was assessed with Kaplan–Meier curves. Potential early side effects for mice that survived until study end were determined based on blood chemistry and organ-to-brain mass ratios on Day 56 by comparison to values obtained from an additional group of therapy-naïve mice (n = 4) without tumors but of the same age (Supplementary Material: Section S9). […]
10. Comparison of [225Ac]Ac-SibuDAB-Treated Mice with Healthy Mice at Study End Purpose: To investigate whether a successful tumor treatment with [225Ac]Ac- […]
compared to treatment-naïve, non-tumor-bearing mice on Day 56.
Methods: In order to assess the tolerability of the treatment, the body mass, the organ masses and organ-to-brain mass ratios as well as blood chemistry of the cured mice were compared to those of healthy, non-tumor-bearing BALB/c nude mice on Day 56.
Results: Survival: Targeted alpha therapy using [225Ac]Ac-SibuDAB was very effec-tive and all mice treated with 5 kBq, 10 kBq or 30 kBq of this radioligand survived until […]
Body Mass: The body mass of mice that were effectively treated with [225Ac]Ac-SibuDAB was in the same range as for healthy, non-tumor-bearing control mice at the end of the study on Day 56 (p>0.05) ( Table S11).

For `O=C([O-])CN1CCN(CC(=O)[O-])CCN(CC(=O)NCC2CCC(C(=O)NC(Cc3ccc4ccccc4c3)C(=O)NCCCCC(NC(=O)NC(CCC(=O)O)C(=O)O)C(=O)O)CC2)CCN(CC(=O)[O-])CC1.[225Ac+3]` (stereo not shown) [[^225Ac]Ac-PSMA-617], the “patients with hematotoxicity up to Grade 3/4” value (patients) is listed as “about 30%”.
In the case of `CC(C)Cc1ccc(C(C)C(=O)NC(CCN)C(=O)NCCCCC(NC(=O)CN2CCN(CC(=O)[O-])CCN(CC(=O)[O-])CCN(CC(=O)[O-])CC2)C(=O)NCC2CCC(C(=O)NC(Cc3ccc4ccccc4c3)C(=O)NCCCCC(NC(=O)NC(CCC(=O)O)C(=O)O)C(=O)O)CC2)cc1.[225Ac+3]` (stereo not shown) [[^225Ac]Ac-SibuDAB], the ALB (BALB/c nude mice; Day 56, 5 kBq) is reported as 25 ± 2 g/L, the ALP (BALB/c nude mice; Day 56, 5 kBq) is reported as 93 ± 10 U/L and the BUN (BALB/c nude mice; Day 56, 5 kBq) is reported as 6.4 ± 1.2 mmol/L. The Brain mass (BALB/c nude mice; Day 56, 5 kBq) was 403 ± 14 mg, the Kidney mass (BALB/c nude mice; Day 56, 5 kBq) was 252 ± 15 mg and the Kidney-to-brain mass ratio (BALB/c nude mice; Day 56, 5 kBq) was 0.63 ± 0.03. For the same molecule, the Liver mass (BALB/c nude mice; Day 56, 5 kBq) was 1079 ± 47 mg, the Liver-to-brain mass ratio (BALB/c nude mice; Day 56, 5 kBq) was 2.7 ± 0.1 and the “RBM (relative body mass)” value (BALB/c nude mice; Day 56, 5 kBq) was 1.13 ± 0.05. For the same molecule, the Spleen mass (BALB/c nude mice; Day 56, 5 kBq) was 113 ± 17 mg, the Spleen-to-brain mass ratio (BALB/c nude mice; Day 56, 5 kBq) was 0.28 ± 0.04 and the TBIL (BALB/c nude mice; Day 56, 5 kBq) was 4.0 ± 0.9 µmol/L. The ALB (BALB/c nude mice; Day 56, 10 kBq) was 26 ± 2 g/L, the ALP (BALB/c nude mice; Day 56, 10 kBq) was 85 ± 7 U/L and the BUN (BALB/c nude mice; Day 56, 10 kBq) was 7.3 ± 0.8 mmol/L. For the same molecule, the Brain mass (BALB/c nude mice; Day 56, 10 kBq) was 384 ± 18 mg, the Kidney mass (BALB/c nude mice; Day 56, 10 kBq) was 260 ± 11 mg and the Kidney-to-brain mass ratio (BALB/c nude mice; Day 56, 10 kBq) was 0.68 ± 0.04. The Liver mass (BALB/c nude mice; Day 56, 10 kBq) was 1139 ± 83 mg, the Liver-to-brain mass ratio (BALB/c nude mice; Day 56, 10 kBq) was 3.0 ± 0.2 and the “RBM (relative body mass)” value (BALB/c nude mice; Day 56, 10 kBq) was 1.12 ± 0.03. It also gave a Spleen mass (BALB/c nude mice; Day 56, 10 kBq) of 116 ± 32 mg, a Spleen-to-brain mass ratio (BALB/c nude mice; Day 56, 10 kBq) of 0.31 ± 0.09 and a TBIL (BALB/c nude mice; Day 56, 10 kBq) of 3.2 ± 0.4 µmol/L. The ALB (BALB/c nude mice; Day 56, 30 kBq) was 22 ± 1 g/L, the ALP (BALB/c nude mice; Day 56, 30 kBq) was 83 ± 2 U/L and the “Adverse events in cured mice compared to healthy mice” value (BALB/c nude mice; Day 56, 30 kBq) was “No obvious adverse events”. It also gave a BUN (BALB/c nude mice; Day 56, 30 kBq) of 7.2 ± 0.7 mmol/L, a Brain mass (BALB/c nude mice; Day 56, 30 kBq) of 408 ± 16 mg and a Kidney mass (BALB/c nude mice; Day 56, 30 kBq) of 252 ± 24 mg. It also gave a Kidney-to-brain mass ratio (BALB/c nude mice; Day 56, 30 kBq) of 0.62 ± 0.05, a Liver mass (BALB/c nude mice; Day 56, 30 kBq) of 1096 ± 79 mg and a Liver-to-brain mass ratio (BALB/c nude mice; Day 56, 30 kBq) of 2.7 ± 0.2. For the same molecule, the “RBM (relative body mass)” value (BALB/c nude mice; Day 56, 30 kBq) was 1.11 ± 0.02, the Spleen mass (BALB/c nude mice; Day 56, 30 kBq) was 127 ± 23 mg and the Spleen-to-brain mass ratio (BALB/c nude mice; Day 56, 30 kBq) was 0.31 ± 0.07. The TBIL (BALB/c nude mice; Day 56, 30 kBq) was 4.3 ± 0.5 µmol/L, the Kidney-to-brain mass ratio (BALB/c nude mice; cured mice, Day 56, range over groups) was 0.62–0.68 and the “Tolerability of therapy (body mass increasing over time)” value (BALB/c nude mice; effectively treated PC-3 PIP tumor-bearing mice) was “well tolerated”.
